Where two headings read alike, the source gives them in different places.
What was measured:
[1] = target: T1, DEPTOR-mTOR interaction (Homo sapiens, UniProt Q8TB45); assay: yeast-2-hybrid screen of NCI library; type: cell-based; settings: pilot screening, hits
T1 construct: expressed in transfected cells; host or cells: yeast (two-hybrid)
From the text: (§1) The third compound, NSC118305, presented several positions for variation but we were worried about the conjugated diene unit since such polyolefinic units might give a rise to non-selective toxicity. […] Therefore the final compound shown, NSC 126405, which was called simply compound B, was chosen as the first compound to modify to try to improve its activity.

[2] = tested on: p70 phosphorylation (mTORC1 activity) in 8226 cells; assay: p70 phosphorylation Western blot (TORC1 activity) in 8226 cells; type: cell-based; settings: 6 hrs; for induction of p70 phosphorylation: 8226 cells, 0.5 uM, compared to compound B; for p70 phosphorylation vs compound B at lower concentrations: as low as 0.25 uM
Description: In mTORC1, mTOR phosphorylates the p70S6 kinase.
(§2) The 8226 and MM1.S myeloma cell lines were purchased from ATCC. The cell lines were characterized by FISH analysis and shown to contain MAF/Ig translocations. Western blot confirmed a significant over-expression of DEPTOR protein. Both lines were tested for mycoplasma within the last 6 months and were negative. Western blot assay—Protein was extracted and separated by 12.5% SDS-PAGE as previously described (see new ref below). Proteins were transferred to polyvinylidene difluoride membranes and their expression was detected utilizing specific antibodies purchased from Cell Signaling (Beverly, Mass.).

[3] = tested on: 8226 MM cell line; assay: MTT cytotoxicity assay, 8226 MM cells; settings: for anti-MM cytotoxicity in MTT assay compared to parent B: 48 hr MTT
Description: In mTORC1, mTOR phosphorylates the p70S6 kinase. Thus, a Western blot was used to test for induction of p70 phosphorylation in this secondary screen. Compounds were tested at 0.5, 1, and 2 uM with 6 hrs in vitro exposure. […] A summary of the p70 phosphorylation data from 4 separate experiments where derivatives were used at 0.5 uM, is shown in FIG. 3B. These first 8 derivatives were also screened for cytotoxicity against the same 8226 MM cell line in 48 hr MTT assays.
P70 phosphorylation was measured in 8226 cells treated for 6 hrs. […] The structures and biological activity of all derivatives are shown in Tables 1-4, categorized by structural modification.
The MTT assay was performed by seeding 1-2×10^4 target cells in 0.1 ml of complete media into wells of a 96 well microtiter plate. After incubation with compounds, the reduction of MTT to formazan by live cells was determined with a microplate ELISA reader equipped with a 570 nm filter.
The induction of p70 phosphorylation by derivative compounds was determined by densitometry, comparing immunoblot signals of phosphorylated p70 vs total p70. This ratio was then compared to that resulting from parental compound B, with the latter ratio arbitrarily placed at ‘1’. The IC50 for MTT cytotoxicity was determined using a range of concentrations of derivatives. Percent apoptosis was enumerated by flow cytometry in drug-treated cultures by subtracting control apoptosis determined from DMSO-treated cultures.

[4] = tested on: MM1.S MM cell line; assay: MTT cytotoxicity assay, MM1.S cells; type: cell-based; settings: Homo sapiens, 48 hr
Description: The MTT assay was performed by seeding 1-2×10^4 target cells in 0.1 ml of complete media into wells of a 96 well microtiter plate. After incubation with compounds, the reduction of MTT to formazan by live cells was determined with a microplate ELISA reader equipped with a 570 nm filter. Quadruplicate wells were run for each group and the SD of each group was always <5% of the mean.

[5] = tested on: normal hematopoietic colony forming cells; assay: colony formation of normal hematopoietic colony forming cells; type: cell-based; settings: concentrations as high as 10 μM
From the text: as §1

[6] = target: T2, DEPTOR/mTOR binding (Homo sapiens, UniProt Q8TB45); assay: DEPTOR/mTOR co-immunoprecipitation in 8226 MM cells; type: cell-based; settings: for DEPTOR/mTOR binding in MM cells: 6 hrs
T2 construct: Western blot confirmed a significant over-expression of DEPTOR protein; host or cells: 8226 multiple myeloma cells

[7] = tested on: 8226 cells; assay: apoptosis assay (activated caspase 3, flow cytometry) in 8226 cells; type: cell-based; settings: 48 hrs
Description: (§3) These were then studied in more detail. […] This was clearly shown for 4d, 4e, 4 g, and 3 g.
To identify apoptotic cells, a phycoerythrin (PE)-conjugated antibody specific for activated caspase 3 (BD Biosciences) was used. For staining, 10^6 cells were washed with PB S and fixed and permeabilized with 0.5 ml cytofix/cytoperm solution. The cells were then incubated with a 1:5 dilution of PE-conjugated monoclonal anti-caspase 3 antibody for 30 mins and analyzed by flow cytometry.

[8] = tested on: normal peripheral blood lymphocytes (PBLs); assay: survival of normal peripheral blood lymphocytes versus 8226 MM cells; type: cell-based; settings: 48 hr assays
Description: (§4) FIG. 5A-FIG. 5E depict exemplary assay data of compounds disclosed herein. […] Therapeutic indices (TIs) calculated as IC50 PBLs/IC50 for 8226 cells.
(§5) To compare anti-myeloma efficacy to non-specific toxicity, each of these 5 active derivatives were compared to compound B in their ability to inhibit survival of 8226 MM cells versus normal peripheral blood lymphocytes (PBLs). In head-to-head experiments, IC50 values for each target were calculated and compared. […] These derivatives were also tested for their anti-MM cytotoxicity in isogenic lines with RAPTOR knockdown.

[9] = tested on: RAPTOR-silenced MM cells; assay: MTT cytotoxicity in RAPTOR-silenced MM cells; type: cell-based; settings: 48 hrs
Description: as §4, §5
The short hairpin RNAs (shRNA)/pLKO.1, targeting RAPTOR or a scrambled sequence (control) were obtained from Addgene. Lentivirus was produced by the UCLA Vector Core facility and stable cell lines were made by transducing cells with lentivirus and selecting in […].

[10] = tested on: p21 expression; assay: p21 expression immunoblot; type: cell-based
Description: as §3, §2

[11] = tested on: 8226 myeloma tumors; assay: subcutaneous xenograft tumor model of myeloma growth; type: in vivo, mice; settings: 20 mg/kg IP daily for 4 days
Description: Peripheral blood was analyzed for white blood cell (WBC), hematocrit (HCT), hemoglobin concentration (HgI) and platelet count.
Briefly, mice were challenged subcutaneously with 5×10^6 8226 cells and when myeloma tumors reached 500 mm^3, mice were treated with DMSO, compound B, or compound 3g (at 20 mg/kg) IP daily for 4 days. Tumor size (mean+/−SD, n=5) was assessed each day (FIG. 8A). *=different from control (DMSO), p<0.05, **=different from compound B, p<0.05. After 4 days of treatment, mice were sacrificed and peripheral blood analyzed for WBC, hematocrit (HCT), hemoglobin concentration (HgI) and platelet count (FIG. 8B). Data are % of control (determination in DMSO-Rx'd mice), mean+/−SD, n=5. *=different from DMSO control, p<0.05.

[12] = target: T3, DEPTOR (Homo sapiens, UniProt Q8TB45); assay: DEPTOR degradation; type: cell-based
T3 construct: endogenous in cells
From the text: FIG. 7A-FIG. 7F depict exemplary assay data for compounds disclosed herein. […] FIG. 7E and FIG. 7F depict data showing the anti-tumor effect was blunted by further transfection of DEPTOR to over-express the protein.

[13] = tested on: OPM2; assay: therapeutic index against OPM2 myeloma cell line; type: cell-based
From the text: (§6) FIG. 6A-FIG. 6D depict exemplary assay data for compounds disclosed herein. […] FIG. 6D highlights IC50 data for 3 g and Compound B (NSC126405).

[14] = tested on: H929; assay: therapeutic index against H929 myeloma cell line; type: cell-based
From the text: as §6

[15] = 48 h, read-out: MTT (IC50, uM) 8226

T2 sequence (Q8TB45 whole entry): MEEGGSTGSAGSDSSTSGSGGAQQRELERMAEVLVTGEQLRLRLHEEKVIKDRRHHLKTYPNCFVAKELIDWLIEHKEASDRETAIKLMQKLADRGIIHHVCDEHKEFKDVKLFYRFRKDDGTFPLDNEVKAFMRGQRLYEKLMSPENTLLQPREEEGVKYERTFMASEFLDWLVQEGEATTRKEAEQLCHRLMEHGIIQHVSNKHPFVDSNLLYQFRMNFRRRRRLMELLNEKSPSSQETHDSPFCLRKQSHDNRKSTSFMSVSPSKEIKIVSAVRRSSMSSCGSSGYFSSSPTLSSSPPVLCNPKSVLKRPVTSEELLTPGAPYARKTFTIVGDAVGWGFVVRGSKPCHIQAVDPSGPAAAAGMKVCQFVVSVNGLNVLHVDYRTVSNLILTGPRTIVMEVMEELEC
T1 sequence (Q8TB45 whole entry): as above
T3 sequence (Q8TB45 whole entry): as above

SMILES	inhibition of the DEPTOR-mTOR interaction [1]	induction of p70 phosphorylation [2]	IC50 [4]	DEPTOR/mTOR binding in MM cells ([6]; 0.5 uM)	p70 phosphorylation vs compound B at lower concentrations [2]	IC50 [3, 15]	anti-MM cytotoxicity in MTT assay compared to parent B [3]	apoptosis activity compared to parent compound B [7]	therapeutic index (IC50 PBLs/IC50 for 8226 cells) compared to compound B [8]	cytotoxicity against RAPTOR-silenced MM cells vs control shSCRAMBLE [9]	p21 expression compared to parent compound B [10]	other results
CCCCCCCCNS(=O)(=O)c1ccccc1 [NSC119670]	specifically inhibited the DEPTOR-mTOR interaction											
NN=C1C(Cl)=C(Cl)C(Cl)=C1Cl [compound B, (Perchlorocyclopenta-2,4-dien-1-ylidene)hydrazine, reference compound]	specifically inhibited the DEPTOR-mTOR interaction	consistently ineffective	3 µM	ineffective								IC50 ([3]; 48 h, read-out: MTT (IC50, uM) 8226, 48 hr): 1.3 µM; IC50 ([3]; read-out: MTT (IC50, uM) 8226, 48 hr): 1.5 µM; toxicity to normal hematopoietic colony formation [5]: not toxic to colony formation; DEPTOR/mTOR binding in MM cells ([6]; 1 uM): prevents DEPTOR/mTOR binding
Fc1ccc(NN=C2C(Cl)=C(Cl)C(Cl)=C2Cl)cc1 [3k, 1-(4-Fluorophenyl)-2-(perchlorocyclopenta-2,4-dien-1-ylidene)hydrazine]		much better activity	1.3 µM	prevented DEPTOR/mTOR binding	significantly more effective	0.7 µM	enhanced cytotoxic effects	enhanced compared to parent compound B	significantly improved therapeutic indices	significantly decreased cytotoxicity		
CN(C)c1ccc(/C=C2\C=Cc3ccccc32)cc1F [NSC118305]	specifically inhibited the DEPTOR-mTOR interaction											
FC(F)(F)c1cccc(NN=C2C(Cl)=C(Cl)C(Cl)=C2Cl)c1 [compound 3g, 1-(Perchlorocyclopenta-2,4-dien-1-ylidene)-2-(3-(trifluoromethyl)phenyl)hydrazine]			1 µM	prevented DEPTOR/mTOR binding	significantly more effective	0.17 µM	enhanced cytotoxic effects	enhanced compared to parent compound B	enhanced therapeutic index	significantly decreased cytotoxicity	enhanced p21 expression	therapeutic index (IC50 PBLs/IC50 for 8226 cells) compared to compound B ([8]; listed as 3 g): significantly improved therapeutic indices; binding of DEPTOR to mTOR ([6]; concentration not given): inhibits binding of DEPTOR to mTOR; anti-tumor efficacy (tumor size) [11]: more efficacious than NSC 126405; effect on normal WBC counts ([11]; peripheral blood): only a minimal effect; degradation of DEPTOR [12]: induces the rapid proteasome-dependent degradation of DEPTOR; therapeutic index versus NSC126405 [13]: enhanced therapeutic index; therapeutic index versus NSC126405 [14]: enhanced therapeutic index
CC(C)(C)OC(=O)NN=C1C(Cl)=C(Cl)C(Cl)=C1Cl [4g, tert-Butyl 2-(perchlorocyclopenta-2,4-dien-1-ylidene)hydrazine-1-carboxylate]			0.6 µM	prevented DEPTOR/mTOR binding	significantly more effective	0.1 µM	enhanced cytotoxic effects	enhanced compared to parent compound B	significantly improved therapeutic indices	significantly decreased cytotoxicity	enhanced p21 expression	

Reference: patent publication US20190330142A1, “INHIBITORS OF MTOR-DEPTOR INTERACTIONS AND METHODS OF USE THEREOF” (The Regents of the University of California, priority 2016, published 2019)
